± gives the expanded uncertainty stated by the source.
Experiments:
[1] = refractive index (Na D-line) (dimensionless); settings: 101.33 kPa, Liquid
[2] = 101 kPa, Liquid; for speed of sound: Sing-around technique in a fixed-path interferometer
[3] = xn = mol fraction of the nth substance listed; settings: 101 kPa, Liquid; for speed of sound: Sing-around technique in a fixed-path interferometer
[4] = refractive index (Na D-line) (dimensionless); xn = mol fraction of the nth substance listed; settings: 101 kPa, Liquid

c1ccccc1 [benzene]
Settings	mass density, [2] [kg/m3]	refractive index, [1]	speed of sound, [2] [m/s]	viscosity, [2] [mPa·s]
298.15 K	873.66 ± 0.66	1.4969 ± 0.0019	1299 ± 10	0.603 ± 0.065
303.15 K	868.29 ± 0.68	1.4949 ± 0.0019	1276 ± 10	0.557 ± 0.061
308.15 K	862.92 ± 0.69	1.4929 ± 0.0019	1253 ± 10	0.533 ± 0.059

Brc1ccccc1 [bromobenzene]
Settings	mass density, [2] [kg/m3]	refractive index, [1]	speed of sound, [2] [m/s]	viscosity, [2] [mPa·s]
298.15 K	1488.12 ± 2.2	1.557 ± 0.0019	1153 ± 10	1.065 ± 0.1
303.15 K	1481.4 ± 2.2	1.555 ± 0.0019	1138 ± 10	1.005 ± 0.099
308.15 K	1474.58 ± 2.2	1.553 ± 0.0019	1122 ± 10	0.972 ± 0.096

Clc1ccccc1 [chlorobenzene] + CCCCC(CC)CO
x1 = 1
Settings	mass density, [3] [kg/m3]	refractive index, [4]	speed of sound, [3] [m/s]	viscosity, [3] [mPa·s]
298.15 K	1101.03 ± 1.1	1.524 ± 0.002	1268 ± 10	0.767 ± 0.079
303.15 K	1095.52 ± 1.1	1.521 ± 0.002	1249 ± 10	0.716 ± 0.074
308.15 K	1090.2 ± 1.1	1.518 ± 0.002	1231 ± 10	0.66 ± 0.069

CCCCC(CC)CO (centres undefined) [2-ethyl-1-hexanol] + Brc1ccccc1
x2 = 0
Settings	mass density, [3] [kg/m3]	refractive index, [4]	speed of sound, [3] [m/s]	viscosity, [3] [mPa·s]
298.15 K	829.07 ± 0.82	1.4287 ± 0.0019	1319 ± 10	8.418 ± 0.65
303.15 K	825.39 ± 0.83	1.4266 ± 0.0019	1301 ± 10	7.144 ± 0.57
308.15 K	821.68 ± 0.84	1.4245 ± 0.0019	1283 ± 10	6.09 ± 0.5

CCCCC(CC)CO (centres undefined) [2-ethyl-1-hexanol]
Settings	mass density, [2] [kg/m3]	refractive index, [1]	speed of sound, [2] [m/s]	viscosity, [2] [mPa·s]
298.15 K	829.07 ± 0.82	1.4287 ± 0.0019	1319 ± 10	8.418 ± 0.65
303.15 K	825.39 ± 0.83	1.4266 ± 0.0019	1301 ± 10	7.144 ± 0.57
308.15 K	821.68 ± 0.84	1.4245 ± 0.0019	1283 ± 10	6.09 ± 0.5

Clc1ccccc1 [chlorobenzene]
Settings	mass density, [2] [kg/m3]	refractive index, [1]	speed of sound, [2] [m/s]	viscosity, [2] [mPa·s]
298.15 K	1101.03 ± 1.1	1.524 ± 0.002	1268 ± 10	0.767 ± 0.079
303.15 K	1095.52 ± 1.1	1.521 ± 0.002	1249 ± 10	0.716 ± 0.074
308.15 K	1090.2 ± 1.1	1.518 ± 0.002	1231 ± 10	0.66 ± 0.069

c1ccccc1 [benzene] + CCCCC(CC)CO
x1 = 1
Settings	mass density, [3] [kg/m3]	refractive index, [4]	speed of sound, [3] [m/s]	viscosity, [3] [mPa·s]
298.15 K	873.66 ± 0.66	1.4969 ± 0.0019	1299 ± 10	0.603 ± 0.065
303.15 K	868.29 ± 0.68	1.4949 ± 0.0019	1276 ± 10	0.557 ± 0.061
308.15 K	862.92 ± 0.69	1.4929 ± 0.0019	1253 ± 10	0.533 ± 0.059
